Assay results from patent US20260285924A1, “PEPTIDE THERAPEUTICS” (priority 2023, published 2026).

Columns and labels:
Assay type in all cases: cell-based, human
[1] = tested on: A375-NRAS^Q61K; experiment: Pan-Cancer PepTile fitness screen (lentiviral 40-mer peptide library, NGS abundance); conditions: peptide enrichment day 14 vs day 0
Experimental: (§1) A peptide tilling screen was performed in A375 similarly to a screen done in MDA-MB-231 (FIG. 1) but with a different lentiviral library. The library (Pan-Cancer library) is composed of 1020 genes tiled every 6 amino acids into 40-mer amino acid long peptides. The gene selection was based on their implication in oncogenesis either being as oncogenes or tumor suppressors. The list was built using recent literature that identified new cancer drivers as well as databases such as Uniprot keywords (KW-0656: Proto-oncogene, KW-0043: Tumor suppressor), and Gene Ontology terms (GO1900117: Apoptosis, GO1901979: Cell cycle checkpoint) (FIG. 2). Aside from Human genes, a list of viral genes was also included (KW-1121: Modulation of host cell cycle by virus) that play roles in high jacking cell cycle progression and thus in oncogenesis (FIG. 2).
(§2) The model of study is melanoma, and this disease is stratified into 4 molecular subtypes, BRAF mutants, NRAS mutants, KIT amplification, NF1 mutations (FIG. 3A). The most prominent mutations found in patient affected with metastatic melanomas are BRAF^V600E and NRAS^Q61K (FIG. 3B). RAS play a key role in oncogenesis and resistance to treatments. Indeed, RAS activating mutations is found in ~20% of all human cancers and secondary NRAS mutation leads to acquired resistance to BRAF targeted therapy such as vemurafenib. Thus, the screen was performed in an A375 cell line model which derived from human BRAF^V600E melanoma as well as an engineered A375 transduced with HA-NRAS^Q61K (FIG. 4A, B). Both cell lines grow at a similar rate but the A375-NRAS^Q61K display more than 10-fold resistance to vemurafenib treatment compared to parental A375 (FIG. 4C, D).
(§3) These cells were transduced with the Pan-Cancer library at a low multiplicity of infection (MOI=0.1-0.3). Then, genomic DNA was extracted at day 0 and day 14 post-transduction to quantify the abundance of peptide for each temporal conditions using Next-generation sequencing. Each experimental replicates were deep sequenced with at least 150 million reads and show a coverage between 82-90% of the initial Pan-Cancer Peptide library (FIG. 5). Then, for each individual peptides a cellular fitness score was calculated based on their enrichment between day 0 and day 14. 8090 peptides negatively affecting growth of A375-WT were identified and 8153 peptides for the A375-NRAS^Q61K cell line (FIG. 6). […] Those common hits are found to be tiles from ~100 genes of the Pan-Cancer gene list and show a substantial biological function clustering.

[2] = tested on: A375-WT; experiment: Pan-Cancer PepTile/PiTile fitness screen (lentiviral 40-mer peptide library, NGS abundance); set-up: key: enrichment of each peptide's NGS abundance, early day vs Day 14; conditions: for A375-WT Fitness Score: Pan-Cancer library, peptide enrichment day 14 vs day 0
Excerpt: FIGS. 13A-13D show Pan-Cancer PiTile Workflow. (A) The Pan-Cancer peptide library is composed of 1081 proteins tiled into 40-mer peptides at every 6 amino acids of the parental protein. The DNA-encoded library is cloned into lentiviral vectors and packaged into lentivirus. (B) A375 cell line was transduced with the Pan-Cancer PiTile library. Genomic DNA was then harvested at Day2 and Day 14 post-transduction and cell populations abundance expressing the different peptides were quantified using Next-Generation Sequencing (NGS). Peptide fitness score was then calculated by the abundance of each peptide at Day2 versus Day 14. Then the fitness signal is mapped over the original amino acid positions of the derived protein. (C) Coverage of the plasmid Pan-Cancer library and peptide-amplicons from Day2 and Day 14 replicated was determined by NGS. (D) Dot plot of the experimental result obtain from screening the Pan-Cancer library in A375 cell line.
as §1, §2, §3
We built a DNA-encoded peptide library composed of all known Human oncogenes and Tumor Suppressors that we fragmented in 40 amino acid long peptides, the Pan-Cancer library. Using lentiviral expression system, we transduced the Pan-Cancer library in A375 cell line. After 14 days of growth, the frequency of each peptide is measured by NGS and this reveal which peptides affect cell fitness. […]

[3] = tested on: A375 cells; experiment: A-to-I PepTile screen: fitness effect upon IFNα (PepTile abundance untreated vs treated); conditions: IFNα 6000 U/ml for 48 hours vs untreated
Excerpt: (§4) FIGS. 12A-12D. A-to-I PepTile screen. (A) Composition of A-to-I PepTile linrary screen, and schematic description of the lentiviral expression vector. (B) Experimental workflow. A375 cells were transduced at low MOI, and then treated or not with IFNα for 48 hrs. RNA was extracted and Peptide_ADARreporter RNA species were amplified and sequenced by NGS. (C) Dot plot of A-to-I PepTile library effect on A-to-I editing with or without IFNα treatment. Red line is the mean A-to-I editing of all the 8088 peptides (>100 read counts) no treatment: 25.75% IFNα: 37.6%. (D) Dot plot of A-to-I PepTile library fitness effect upon IFNα for 48 hrs.
Provided herein is a screening methodology to measure the effect of small peptide on A-to-I RNA editing in situ and screen thousands of peptides in a single experiment. First, a library of peptides with the potential of impairing A-to-I editing was designed and built. ADAR enzymes edit RNA only on double-stranded RNA structures and via ADAR's double stranded RNA-Binding Domain (dsRBD). […] The A-to-I PepTile library is composed of 19 Human proteins having dsRBD and 34 known protein-protein interactors of ADAR1/2. All these proteins were tiled into 40-mer peptides every 4 amino acids (FIG. 12A). To measure A-to-I editing, a biosensor consisting of a 71 bp dsRNA hairpin structure that gets A-to-I edited at a rate of 25% in A375 melanoma cells, and ~37% upon IFNα treatment was used. This A-to-I editing reporter is fused with DNA sequence encoding for a peptide from the A-to-I PepTile library. The A-to-I PepTile plasmid pool (10304 elements) was used to produced lentiviruses and transduced A375 cells at a low multiplicity of infection (MOI) (FIG. 12B). A part of the infected cells was treated with IFNα at 6000 U/ml for 48 hours, and then bulk RNA of the basal and treated condition was harvested. RNA was then retrotranscribed into cDNA and sequenced by Next-Generation Sequencing (NGS). With the sequencing data, the A-to-I editing percentage of the RNA reporter for each PepTile is calculated since both elements are encoded on the same transcript. Moreover, with this screen one can also measure the abundance of the PepTiles between the untreated and treated conditions and determine Fitness score associated to every PepTile. To ensure a robust and more accurate A-to-I editing % estimation a cut-off of 100 read counts was set for each PepTile. […] SEQ ID NOs: 2125-2147 are A-to-I peptide inhibitors and SEQ ID NOs: 2148-2210 are A-to-I activators. In addition, 117 PepTiles were identified that either synergize (SEQ ID NOs: 2211-2243) or protect (SEQ ID NOs: 2244-2327) to IFNα-induced cell death (FIG. 12D and Table 5). These PepTiles are potential new therapeutic agents that can modulate the Interferon pathway. They may be beneficial in treating inflammatory conditions and may also enhance the effectiveness of cancer immunotherapy through synergistic effects.

[4] = tested on: A-to-I RNA editing reporter (ADAR) in A375; experiment: A-to-I PepTile (REPTILE) screen: A-to-I editing of dsRNA hairpin reporter by NGS; conditions: for % A-to-I editing (IFNα): IFNα 6000 U/ml for 48 hours; for % A-to-I editing (Basal): no treatment
Excerpt: as §4
FIGS. 17A-17F show A-to-I RNA Editing PiTile (REPTILE) screen in A375. (A) A-to-I RNA Editing PiTile (REPTILE) library design consist of fragmentation of all known ADAR1, ADAR2 interactors and all human double stranded RNA-binding protein into 40 amino acid long peptide. This library was then cloned into a lentivirus vector that also encode a DNA-encoded RNA loop reporter (A-to-I Rep) that is edited by ADAR proteins in cells at the RNA level. When the construct is expressed, the RNA loop gets edited on a single Adenosine, while the 40-mer peptide get expressed at the protein level. Then we can measure the impact of the peptide expression on the editing rate of the RNA loop reporter by sequencing (NGS and Sanger). (B) Experimental workflow of REPTILE screen in A375 cell line. Cells were transduced with the REPTILE library, and then treated for 48 hours with IFNα. Following the treatment, RNA was harvested, converted into cDNA and amplicon library containing peptide Identity (barcode) linked to the RNA loop reporter were prepared for NGS. (C) Result of the A375 REPTILE screen in the no treatment condition. Each dot represents a unique peptide that is associated with an A-to-I editing rate that was measured on the RNA loop. (D) Result of the A375 REPTILE screen in the IFNα condition. Each dot represents a unique peptide that is associated with an A-to-I editing rate that was measured on the RNA loop. Red line represent the A-to-I editing mean, Dash blue line represent 2 times the standard deviation of the % A-to-I editing across all the datasets. This cutoff was used to defined peptides hits that modulate RNA A-to-I editing. (E) Peptide A-to-I Inhibitor Hits intersection between no treatment (% A-to-I editing<15%) and IFNα (% A-to-I editing<27%) conditions. (F) Peptide A-to-I Enhancers Hits intersection between no treatment (% A-to-I editing>36%) and IFNα (% A-to-I editing>47%) conditions.
Provided herein is a screening methodology to measure the effect of small peptide on A-to-I RNA editing in situ and screen thousands of peptides in a single experiment. First, a library of peptides with the potential of impairing A-to-I editing was designed and built. ADAR enzymes edit RNA only on double-stranded RNA structures and via ADAR's double stranded RNA-Binding Domain (dsRBD). […] The A-to-I PepTile library is composed of 19 Human proteins having dsRBD and 34 known protein-protein interactors of ADAR1/2. All these proteins were tiled into 40-mer peptides every 4 amino acids (FIG. 12A). To measure A-to-I editing, a biosensor consisting of a 71 bp dsRNA hairpin structure that gets A-to-I edited at a rate of 25% in A375 melanoma cells, and ~37% upon IFNα treatment was used. This A-to-I editing reporter is fused with DNA sequence encoding for a peptide from the A-to-I PepTile library. The A-to-I PepTile plasmid pool (10304 elements) was used to produced lentiviruses and transduced A375 cells at a low multiplicity of infection (MOI) (FIG. 12B). A part of the infected cells was treated with IFNα at 6000 U/ml for 48 hours, and then bulk RNA of the basal and treated condition was harvested. RNA was then retrotranscribed into cDNA and sequenced by Next-Generation Sequencing (NGS). […]

Substance	A375-NRAS Fitness Score [1]	A375-WT Fitness Score [2]	Fitness score ([2]; PanCancer Peptide Table (Table 3), lentivirally expressed 40-mer peptide tile)	Fitness Score IFNα [3]	% A-to-I editing (IFNα) [4] [%]	% A-to-I editing (Basal) [4] [%]
AXIN1_22: 40-mer peptide tile of AXIN1, AA start position 126, RGS domain (KLEPCDSNEEKRLKLARAIYRKYILDNNGIVSRQTKPATK; RGS domain peptide tile; UniProt O15169 126-165, looked up, fragment)	−0.54	−2.88				
CTNNB1_30: 40-mer peptide tile of CTNNB1, AA start position 174, Armadillo domain (MVHQLSKKEASRHAIMRSPQMVSAIVRTMQNTNDVETARC; UniProt P35222 174-213, looked up, fragment)	−0.85	−3.29	−3.30			
MAD1L1_78: 40-mer peptide tile of MAD1L1, AA start position 462, Coiled Coil domain (ELGGQKQRADMLEMELKMLKSQSSSAEQSFLFSREEADTL; UniProt Q9Y6D9 462-501, looked up, fragment)	−3.52	−4.42				
FLCN_43: 40-mer peptide tile of FLCN, AA start position 252, Longin domain (ACLHTSFAWLLKACGSRLTEKLLEGAPTEDTLVQMEKLAD; UniProt Q8NFG4 252-291, looked up, fragment)	−1.99	−1.76				
DOCK4_114: 40-mer peptide tile of DOCK4, AA start position 678, Armadillo domain (LIKVLKWYVDRITEAERQEHIQEVLKAQEYIFKYIVQSRR; UniProt Q8N1I0 678-717, looked up, fragment)	−3.45	0.87				
SUZ12_23: 40-mer peptide tile of SUZ12, AA start position 132, WDB1 domain (FKVDDMLSKVEKMKGEQESHSLSAHLQLTFTGFFHKNDKP; UniProt Q15022 132-171, looked up, fragment)	−0.27	−2.12				
MMGGPLPPHLALKAENNSEVGASGYGVPGPTWDRGANLKDY [DHX9_28]				1.46	54.35	49.65
MCSFNDPNAKEMHLKGRRHRLQYKKKVNPDLQVEVKPSIRA [ZFR_148]				-1.00	48.58	37.77
MSQVRAFRHTSTLAAMKLMTALVNVALNLSIHQDNTQRQYE [STAG1_54]				0.28	54.81	43.52
MPVSALHQFAQMQRVQLDLKETVTTGNVMGPYFAFCAVVDG [ADAD1_25]				0.99	25.66	14.03
MAGPLGPGDAVRRVLECVATGTLLTDGPGLQDPCERDQTDA [ZFR2_207]				1.51	51.31	45.30
